In data set [1] the target is T1, human DAT (Homo sapiens, UniProt Q01959).
T1 construct: gene SLC6A3; full-length codon-optimized human DAT with N-terminal mScarlet-I tag (subcloned from EYFP-DAT), stably expressed in TAAR1 KO HEK293 cells
Briefly: [3H]dopamine uptake inhibition, intact cells. The class given is cell-based.

The target of data set [2] is T1, human DAT. Briefly: […]RTI-55 competition binding, cell membranes. Particulars: read-out: Inhibition of [^125I]RTI-55 Binding pKi ± SD (n) (converted).
Substrate in data set [3]: NCCc1ccc(O)c(O)c1
Kind of data set: cells, lysate or membranes. Particulars: TAAR1-/- DAT cells, vehicle pretreatment, 10 min uptake; labelled compound; n=4.

On to `CCN(C[C@H]1COC(N)=N1)c1ccccc1` [RO5166017], for which, in data set [1] (read-out: Inhibition of [^3H]DA Uptake pIC50 ± SD (n) (converted)), the IC50 is 17.4 µM. The Ki in data set [2] is 21.9 µM.

With `CC[C@@H](C[C@H]1COC(N)=N1)c1ccccc1` [RO5256390], the “Inhibition of [^3H]DA Uptake pIC50 ± SD (n)” value in data set [1] (20 nM [3H]DA, 10 min preincubation, 10 min uptake, 25 °C, Krebs-HEPES buffer, n=6) is 5.73 ± 0.23.

B1: human DAT (Homo sapiens) (protein)
chain: MSKSKCSVGLMSSVVAPAKEPNAVGPKEVELILVKEQNGVQLTSSTLTNPRQSPVEAQDRETWGKKIDFLLSVIGFAVDLANVWRFPYLCYKNGGGAFLVPYLLFMVIAGMPLFYMELALGQFNREGAAGVWKICPILKGVGFTVILISLYVGFFYNVIIAWALHYLFSSFTTELPWIHCNNSWNSPNCSDAHPGDSSGDSSGLNDTFGTTPAAEYFERGVLHLHQSHGIDDLGPPRWQLTACLVLVIVLLYFSLWKGVKTSGKVVWITATMPYVVLTALLLRGVTLPGAIDGIRAYLSVDFYRLCEASVWIDAATQVCFSLGVGFGVLIAFSSYNKFTNNCYRDAIVTTSINSLTSFSSGFVVFSFLGYMAQKHSVPIGDVAKDGPGLIFIIYPEAIATLPLSSAWAVVFFIMLLTLGIDSAMGGMESVITGLIDEFQLLHRHRELFTLFIVLATFLLSLFCVTNGGIYVFTLLDHFAAGTSILFGVLIEAIGVAWFYGVGQFSDDIQQMTGQRPSLYWRLCWKLVSPCFLLFVVVVSIVTFRPPHYGAYIFPDWANALGWVIATSSMAMVPIYAAYKFCSLPGSFREKLAYAIAPEKDRELVDRGEVRQFTLRHWLKV
Take B1: in data set [3], the Michaelis-Menten constant (Km) stood at 0.631 ± 0.26 µM and the Vmax came out at 1.63e-06 µmol/min/mg.
